Literature values as cited in patent publication US20090148509A1, “ENCAPSULATION AND DEAGGREGATION OF POLYENE ANTIBIOTICS USING POLY(ETHYLENE GLYCOL)-PHOSPHOLIPID MICELLES” (WISCONSIN ALUMNI RESEARCH FOUNDATION, priority 2002, published 2009).

Key:
[1] = surfactant:AmB

Row | Compound | critical aggregation concentration of AmB in water | molar ratio required to efficiently deaggregate AmB [1]
1 | C[C@@H]1[C@H](O)[C@@H](C)/C=C/C=C/C=C/C=C/C=C/C=C/C=C/[C@H](O[C@@H]2O[C@H](C)[C@@H](O)[C@H](N)[C@@H]2O)C[C@@H]2O[C@](O)(C[C@@H](O)C[C@@H](O)[C@H](O)CC[C@@H](O)C[C@@H](O)CC(=O)O[C@H]1C)C[C@H](O)[C@H]2C(=O)O [AmB, Amphotericin B] | about 1.0 μg/ml | –
2 | sodium deoxycholate | – | greater than 40
